Laboratory results as given in ChEMBL document CHEMBL1147189, “QSAR analysis for heterocyclic antifungals” (2007).
Converted amounts (≈) assume the structure as drawn.

The compounds below were run on Candida albicans (assay: Antifungal activity against Candida albicans by serial dilution method). Conditions: read-out: -Log MIC (converted).
Format: functional

MIC [µM] | SMILES
46.7 (≈ 12.5 µg/mL) | O=[N+]([O-])c1ccc2oc(CCc3ccccc3)nc2c1
43.4 (≈ 12.5 µg/mL) | O=[N+]([O-])c1ccc(Cc2nc3cc(Cl)ccc3o2)cc1
59.8 (≈ 12.5 µg/mL) | c1ccc(Cc2nc3ccccc3o2)cc1
45.5 (≈ 12.5 µg/mL) | O=[N+]([O-])c1ccc2oc(-c3ccc(Cl)cc3)nc2c1
59.6 (≈ 12.5 µg/mL) | Cc1ccc(-c2nc3ncccc3o2)cc1
38.9 (≈ 12.6 µg/mL) | Clc1ccc2oc(Cc3ccc(Br)cc3)nc2c1
97.1 (≈ 25 µg/mL) | c1ccc(SCc2nc3ccccc3s2)cc1 [2-(PHENYLTHIOMETHYL)BENZO[D]THIAZOLE]
59.3 (≈ 12.5 µg/mL) | Nc1ccc(-c2nc3ncccc3o2)cc1
105 (≈ 25 µg/mL) | CCc1ccc(-c2nc3cc(C)ccc3o2)cc1
148 (≈ 50 µg/mL) | O=[N+]([O-])c1cc2oc(COc3ccc(Cl)cc3)nc2cc1Cl
96.6 (≈ 25 µg/mL) | Clc1ccc(OCc2nc3ccccc3[nH]2)cc1
48 (≈ 12.5 µg/mL) | Clc1ccc(OCc2nc3ncccc3o2)cc1
97.3 (≈ 25 µg/mL) | Clc1ccc2[nH]c(CCc3ccccc3)nc2c1
110 (≈ 25 µg/mL) | Cc1ccc2oc(-c3ccc(F)cc3)nc2c1
111 (≈ 25 µg/mL) | c1ccc(OCc2nc3ccccc3o2)cc1
183 (≈ 50 µg/mL) | Cc1ccc2oc(COc3ccc(Cl)cc3)nc2c1
97.1 (≈ 25 µg/mL) | CCc1ccc(-c2nc3cc(Cl)ccc3o2)cc1
48.3 (≈ 12.5 µg/mL) | Clc1ccc2[nH]c(COc3ccccc3)nc2c1
164 (≈ 50 µg/mL) | O=[N+]([O-])c1ccc2nc(COc3ccc(Cl)cc3)oc2c1
83.9 (≈ 25 µg/mL) | COC(=O)c1ccc2[nH]c(CSc3ccccc3)nc2c1
51.3 (≈ 12.5 µg/mL) | Clc1ccc2oc(Cc3ccccc3)nc2c1
77.6 (≈ 22.4 µg/mL) | Nc1ccc2oc(-c3ccc(Br)cc3)nc2c1
55.3 (≈ 12.5 µg/mL) | COc1ccc(-c2nc3ncccc3o2)cc1
43.9 (≈ 12.5 µg/mL) | O=[N+]([O-])c1ccc2[nH]c(CSc3ccccc3)nc2c1

MIC [µM] | SMILES
111 (≈ 25 µg/mL) | c1ccc(OCc2nc3ccccc3[nH]2)cc1
183 (≈ 50 µg/mL) | Cc1ccc2nc(COc3ccc(Cl)cc3)oc2c1
49.2 (≈ 12.5 µg/mL) | Cc1ccc(-c2nc3cc([N+](=O)[O-])ccc3o2)cc1
51.3 (≈ 12.5 µg/mL) | Clc1ccc(Cc2nc3ccccc3o2)cc1
98.9 (≈ 25 µg/mL) | CN(C)c1ccc(-c2nc3cc(N)ccc3o2)cc1
39.3 (≈ 12.5 µg/mL) | O=[N+]([O-])c1ccc2oc(-c3ccc(Br)cc3)nc2c1
91.8 (≈ 25 µg/mL) | Cc1ccc2[nH]c(COc3ccc(Cl)cc3)nc2c1
92.5 (≈ 25 µg/mL) | O=[N+]([O-])c1ccc2oc(COc3ccccc3)nc2c1
52.8 (≈ 12.5 µg/mL) | Cc1ccc2[nH]c(CCc3ccccc3)nc2c1
49.2 (≈ 12.5 µg/mL) | O=[N+]([O-])c1ccc(Cc2nc3ccccc3o2)cc1
78.7 (≈ 25 µg/mL) | COC(=O)c1ccc2oc(COc3ccc(Cl)cc3)nc2c1
39 (≈ 12.5 µg/mL) | O=[N+]([O-])c1cc2oc(CSc3ccccc3)nc2cc1Cl
55.8 (≈ 12.5 µg/mL) | c1ccc(CCc2nc3ncccc3o2)cc1
105 (≈ 25.1 µg/mL) | Cc1ccc2oc(COc3ccccc3)nc2c1
105 (≈ 25.1 µg/mL) | COc1ccc(-c2nc3cc(C)ccc3o2)cc1
82 (≈ 25 µg/mL) | O=[N+]([O-])c1ccc2oc(COc3ccc(Cl)cc3)nc2c1
96.4 (≈ 25 µg/mL) | Clc1ccc(OCc2nc3ccccc3o2)cc1
97.9 (≈ 24.9 µg/mL) | Cc1ccc2[nH]c(CSc3ccccc3)nc2c1
207 (≈ 50 µg/mL) | c1ccc(OCc2nc3ccccc3s2)cc1 [2-(PHENOXYMETHYL)BENZOTHIAZOLE]
43.8 (≈ 12.5 µg/mL) | O=[N+]([O-])c1ccc2oc(CSc3ccccc3)nc2c1
42.7 (≈ 12.5 µg/mL) | Clc1ccc(OCc2nc3cc(Cl)ccc3[nH]2)cc1
87.3 (≈ 25 µg/mL) | CC(=O)Nc1ccc(-c2nc3cc(Cl)ccc3o2)cc1
20.9 (≈ 6.25 µg/mL) | O=[N+]([O-])c1ccc(Cc2nc3cc([N+](=O)[O-])ccc3o2)cc1
185 (≈ 50.1 µg/mL) | O=[N+]([O-])c1ccc2nc(COc3ccccc3)oc2c1

MIC [µM] | SMILES
99.8 (≈ 25.1 µg/mL) | CC(C)(C)c1ccc(-c2nc3ccccc3o2)cc1
88.5 (≈ 25 µg/mL) | COC(=O)c1ccc2[nH]c(COc3ccccc3)nc2c1
79.1 (≈ 25 µg/mL) | COC(=O)c1ccc2[nH]c(COc3ccc(Cl)cc3)nc2c1
51.8 (≈ 12.5 µg/mL) | c1ccc(SCc2nc3ccccc3o2)cc1
94.6 (≈ 25 µg/mL) | Clc1ccc(-c2nc3cc(Cl)ccc3o2)cc1
105 (≈ 25 µg/mL) | CCc1ccc(-c2nc3cc(N)ccc3o2)cc1
84.9 (≈ 25 µg/mL) | Clc1ccc(OCc2nc3cc(Cl)ccc3o2)cc1
83.6 (≈ 18.6 µg/mL) | c1ccc(CCc2nc3ccccc3[nH]2)cc1
52.1 (≈ 14 µg/mL) | O=[N+]([O-])c1ccc2[nH]c(COc3ccccc3)nc2c1
18.8 (≈ 6.28 µg/mL) | O=[N+]([O-])c1ccc2oc(Cc3ccc(Br)cc3)nc2c1
45.7 (≈ 12.5 µg/mL) | COc1ccc(Cc2nc3cc(Cl)ccc3o2)cc1
51.9 (≈ 12.5 µg/mL) | O=[N+]([O-])c1ccc(-c2nc3ncccc3o2)cc1
45.3 (≈ 11.8 µg/mL) | Clc1ccc2oc(COc3ccccc3)nc2c1
41.8 (≈ 12.5 µg/mL) | COC(=O)c1ccc2oc(CSc3ccccc3)nc2c1
42.2 (≈ 12.5 µg/mL) | CC(C)(C)c1ccc(-c2nc3cc([N+](=O)[O-])ccc3o2)cc1
181 (≈ 49.9 µg/mL) | Clc1ccc(OCc2nc3ccccc3s2)cc1
52.2 (≈ 12.5 µg/mL) | COc1ccc(Cc2nc3ccccc3o2)cc1
91.2 (≈ 25 µg/mL) | O=[N+]([O-])c1ccc(-c2nc3cc(Cl)ccc3o2)cc1
88.3 (≈ 25 µg/mL) | COC(=O)c1ccc2oc(COc3ccccc3)nc2c1
52.2 (≈ 12.5 µg/mL) | O=[N+]([O-])c1ccc2oc(-c3ccccc3)nc2c1
43.7 (≈ 12.5 µg/mL) | O=[N+]([O-])c1ccc2nc(CSc3ccccc3)oc2c1
110 (≈ 25 µg/mL) | Nc1ccc2oc(-c3ccc(F)cc3)nc2c1
105 (≈ 25 µg/mL) | Cc1ccc2[nH]c(CNc3ccccc3)nc2c1
52.1 (≈ 12.5 µg/mL) | CCOc1ccc(-c2nc3ncccc3o2)cc1

MIC [µM] | SMILES
22 (≈ 6.26 µg/mL) | COc1ccc(Cc2nc3cc([N+](=O)[O-])ccc3o2)cc1
97.9 (≈ 25 µg/mL) | Cc1ccc2nc(CSc3ccccc3)oc2c1
94.4 (≈ 24.4 µg/mL) | CNc1ccc(-c2nc3cc(Cl)ccc3o2)cc1
55.8 (≈ 12.5 µg/mL) | CCc1ccc(-c2nc3ncccc3o2)cc1
128 (≈ 25 µg/mL) | c1ccc(-c2nc3ccccc3o2)cc1 [2-PHENYLBENZO[D]OXAZOLE]
99.1 (≈ 25 µg/mL) | Cc1ccc2oc(-c3ccc(N(C)C)cc3)nc2c1
112 (≈ 25 µg/mL) | CNc1ccc(-c2nc3ccccc3o2)cc1
105 (≈ 25 µg/mL) | CNc1ccc(-c2nc3cc(C)ccc3o2)cc1
43.7 (≈ 12.6 µg/mL) | Brc1ccc(Cc2nc3ccccc3o2)cc1
105 (≈ 25 µg/mL) | Cc1ccc2[nH]c(COc3ccccc3)nc2c1
49 (≈ 12.5 µg/mL) | Nc1ccc(-c2nc3cc([N+](=O)[O-])ccc3o2)cc1
112 (≈ 25 µg/mL) | c1ccc(NCc2nc3ccccc3[nH]2)cc1
24.6 (≈ 6.26 µg/mL) | O=[N+]([O-])c1ccc2oc(Cc3ccccc3)nc2c1
55 (≈ 12.4 µg/mL) | c1ccc(OCc2nc3ncccc3o2)cc1
119 (≈ 25 µg/mL) | Nc1ccc(-c2nc3ccccc3o2)cc1
21.7 (≈ 6.26 µg/mL) | O=[N+]([O-])c1ccc2oc(Cc3ccc(Cl)cc3)nc2c1
97.9 (≈ 25 µg/mL) | Cc1ccc2oc(CSc3ccccc3)nc2c1
52 (≈ 12.5 µg/mL) | c1ccc(SCc2nc3ccccc3[nH]2)cc1
112 (≈ 25.1 µg/mL) | Cc1ccc(-c2nc3cc(C)ccc3o2)cc1
94 (≈ 25 µg/mL) | CC(=O)Nc1ccc(-c2nc3cc(C)ccc3o2)cc1
104 (≈ 25 µg/mL) | Cc1ccc2nc(COc3ccccc3)oc2c1
164 (≈ 50 µg/mL) | O=[N+]([O-])c1cc2oc(COc3ccccc3)nc2cc1Cl
91 (≈ 25 µg/mL) | Clc1ccc2[nH]c(CSc3ccccc3)nc2c1
